As usually defined, the IC50 is the concentration that gives 50% inhibition. One may read the ED50 as the dose at which the effect has come halfway, by size or by number of responders. The LD50 is the dose expected to kill half of the subjects tested. As usually defined, the EC50 is the midpoint of the concentration-response curve.

The results in this text go back to ChEMBL document CHEMBL2216752, “Carnitine palmitoyltransferase (CPT) modulators: a medicinal chemistry perspective on 35 years of research” (J Med Chem, 2011).

Where only a bound is given, the exact number is not on record here.

One data set deals with Sus scrofa. Description: Reduction in blood glucose in STZ-treated diabetic pig at 10 to 40 umol/kg, iv measured 6 hrs post dose. On the set-up: scale not given: the % may be the effect or the level left. The format is functional.
Data set [1] can be described thus: Inhibition of rat FAO.
Data set [2] in a line: Inhibition of human FAO.
For a further data set, the system named is Cavia porcellus. The experiment in a line: Reduction in blood glucose in SPF-white inbred guinea pig at 7 to 56 umol/kg, po. The class given is functional.
Data set [3] relates to Rattus norvegicus. Description: Reduction in blood glucose in adrenalectomized rat at 25 to 150 umol/kg, po. The class given is functional. On the set-up: scale not given: the % may be the effect or the level left.
Data set [4] relates to Rattus norvegicus. The experiment in a line: Reduction in total cholesterol level in fasted Sprague-Dawley rat at 8 to 300 umol/kg, po measured 24 hrs post dose. The class given is functional. On the set-up: scale not given: the % may be the effect or the level left.
For data set [5], the system named is Rattus norvegicus. The experiment in a line: Increase in plasma TG level in fasted Sprague-Dawley rat at 8 to 300 umol/kg, po measured 2 to 4 hrs post dose. The class given is functional.
Data set [6] concerns Rattus norvegicus. The experiment in a line: Increase in plasma FFAs level in fasted Sprague-Dawley rat at 8 to 300 umol/kg, po measured 2 to 4 hrs post dose. The class given is functional.
The subject of data set [7] is Rattus norvegicus. The experiment in a line: Reduction in blood KB level in fasted Sprague-Dawley rat at 8 to 300 umol/kg, po. The format is functional. On the set-up: scale not given: the % may be the effect or the level left.
The subject of data set [8] is Rattus norvegicus. The experiment in a line: Reduction in blood glucose in po dosed fasted Sprague-Dawley rat. The class given is functional.
In data set [9] the test system is Rattus norvegicus. The experiment in a line: Reduction in blood glucose in fasted Sprague-Dawley rat at 8 to 300 umol/kg, po measured 2 hrs post dose. The class given is functional. On the set-up: scale not given: the % may be the effect or the level left.
Data set [10] relates to Rattus norvegicus. Description: Inhibition of CPT1 in fasted Sprague-Dawley rat liver mitochondria at 0.6 to 60 umol/kg, po measured 4 hrs post dose. The class given is functional.
Data set [11] deals with Rattus norvegicus. Description: Reduction in blood KB in fasted Sprague-Dawley rat at 0.6 to 60 umol/kg, po. The class given is functional. Further details: scale not given: the % may be the effect or the level left.
Data set [12] deals with Rattus norvegicus. The experiment in a line: Reduction in blood glucose in fasted Sprague-Dawley rat at 0.6 to 60 umol/kg, po. The format is functional. Further details: scale not given: the % may be the effect or the level left.
Data set [13] concerns Mus musculus. Description: Reduction in glucose AUC in db/db mouse at 19 umol/kg/day, po for 4 days administering last dose 1 hr before glucose load by OGTT test. The class given is functional. Further details: scale not given: the % may be the effect or the level left.
Data set [14] has as its system Mus musculus. The experiment in a line: Reduction in FBG in db/db mouse at 19 umol/kg/day, po for 4 days measured 1 hr post dose after 16 hrs fasting. On the set-up: scale not given: the % may be the effect or the level left. The format is functional.
A short description of data set [15]: Toxicity in po dosed Sprague-Dawley rat assessed as hypoglycemic coma. The note with it: in vivo. The format is organism-based.
The test system of data set [16] is Rattus norvegicus. Description: Reduction in blood glucose in po dosed Sprague-Dawley rat. The class given is functional.
For data set [17], the system named is Rattus norvegicus. Description: Reduction in blood glucose in Sprague-Dawley rat at 600 umol/kg, po. On the set-up: scale not given: the % may be the effect or the level left. The format is functional.
The subject of data set [18] is Rattus norvegicus. Description: Inhibition of CPT1 in Sprague-Dawley rat liver mitochondria at 0.6 to 60 umol/kg, po measured 4 hrs post dose. The format is functional.
The test system of data set [19] is Rattus norvegicus. Description: Reduction in blood KB in Sprague-Dawley rat at 0.6 to 60 umol/kg, po. The format is functional. Further details: scale not given: the % may be the effect or the level left.
The species entered for data set [20] is Rattus norvegicus. Description: Reduction in oxidation rate in rat liver mitochondria treated at 0.05% or 0.2% dose through food-admix for 12 weeks by polarographic oxygen uptake method. The format is functional, organism-based. Further details: scale not given: the % may be the effect or the level left.
For data set [21], the species on record is Rattus norvegicus. The experiment in a line: Reduction in oxidation rate in rat liver mitochondria treated at 0.05% or 0.2% dose through food-admix for 12 weeks. The format is functional, organism-based. On the set-up: scale not given: the % may be the effect or the level left.
Data set [22] can be described thus: Inhibition of carnitine palmitoyltransferase in hepatocytes from fasted rat assessed as oxidation of [U-14C]palmitate and production of acetoacetate and BHB. The class given is cell-based. The following applies: Hepatocyte.
The species entered for data set [23] is Homo sapiens. The experiment in a line: Inhibition of carnitine palmitoyltransferase in human fibroblasts assessed as [14]CO2 production from [U-14C]glucose at 5 to 50 uM by radiometric assay. Further details: scale not given: the % may be the effect or the level left.
The species named for data set [24] is Homo sapiens. The experiment in a line: Inhibition of carnitine palmitoyltransferase in human fibroblasts assessed as [14]CO2 production from [1-14C]pyruvate at 5 to 50 uM by radiometric assay. On the set-up: scale not given: the % may be the effect or the level left.
For data set [25], the species on record is Homo sapiens. The experiment in a line: Inhibition of carnitine palmitoyltransferase in human fibroblasts assessed as [14]CO2 production at 5 to 50 uM from [U-14C]palmitate by radiometric assay. On the set-up: scale not given: the % may be the effect or the level left.
The subject of data set [26] is Rattus norvegicus. Description: Increase in coronary flow in perfused rat heart at 5 mg/kg, sc administered as single dose administered 120 mins before start of perfusion. The format is functional. The note with it: route subcutaneous.
The nature of data set [27]: Inhibition of carnitine palmitoyltransferase in rat liver mitochondria assessed as formation of formation of palmitoyl[3H]carnitine from palmitoyl-CoA and [3H]carnitine.
Data set [28] in a line: Inhibition of carnitine palmitoyltransferase hemidiaphragms isolated from fasted pretreated rat assessed as reduction of [14]CO2 production from [1-14]-palmitate or [14C]-oleate.
Data set [29] deals with Canis familiaris. The experiment in a line: Reduction in blood glucose in alloxan -treated dog at 7.5 mg/kg, po administered as single dose measured 6 hrs post dose (reference value: 9 mM). The format is functional, Canis lupus familiaris.
In data set [30] the test system is Canis familiaris. Description: Reduction in blood glucose in STZ-treated dog at 0.7 to 2 mg/kg/day, po for 7 days measured 6 hrs post dose (reference value: 9 mM). The class given is functional, Canis lupus familiaris.
The test system of data set [31] is Canis familiaris. Description: Reduction in fasting glucose in STZ-treated dog at 2.5 mg/kg/day, po for 7 days. The format is functional, Canis lupus familiaris. On the set-up: scale not given: the % may be the effect or the level left.
Data set [32] deals with Rattus norvegicus. Description: Reduction in KB level in alloxan-treated rat at 25 to 50 mg/kg, po measured 2 to 5 hrs post dose. The format is functional. On the set-up: scale not given: the % may be the effect or the level left. The following applies: […].
Data set [33] relates to Rattus norvegicus. Description: Suppression of labeled pyruvate conversion to [14C]glucose in Sprague-Dawley rat at 10 to 20 mg/kg, po. The note with it: dose mg/kg 10-20. The class given is functional.
For data set [34], the system named is Mus musculus. The experiment in a line: Reduction in blood glucose in fasted db/db mouse at 50 to 100 mg/kg, po measured 2 to 4 hrs post dose. The format is functional. On the set-up: scale not given: the % may be the effect or the level left.
For data set [35], the system named is Mus musculus. Description: Reduction in blood glucose in fed db/db mouse at 50 to 100 mg/kg, po measured 2 to 4 hrs post dose. The class given is functional. Further details: scale not given: the % may be the effect or the level left.

Consider `O=C([O-])C1(CCCCCc2ccc(Cl)cc2)CO1.[Na+]` (racemic), for which the Activity result is “<=35%” in the data set with Sus scrofa; 34% in the data set on Rattus norvegicus [3]; 43% with Rattus norvegicus [4]; “<=290%” with Rattus norvegicus [5]; 300% with Rattus norvegicus [6]; “<=75%” with Rattus norvegicus [7]. Also, the Activity result in the data set on Rattus norvegicus [9] is reported as “<=50%”; in the data set on Rattus norvegicus [11], 78%; in the data set on Rattus norvegicus [12], “<=25%”; in the data set on Mus musculus [13] it was 50%; in the data set on Mus musculus [14], 60%; with Rattus norvegicus [17], 80%. Further, the Activity entry in the data set with Rattus norvegicus [19] is “<=40%”; in the data set filed under Rattus norvegicus [20], < 50%; in the data set filed under Rattus norvegicus [21] it was < 80%; in the data set filed under Homo sapiens [23], 250%; in the data set listed under Homo sapiens [24], 24%; in the data set filed under Homo sapiens [25], 90%. The same compound returned an Activity in the data set on Rattus norvegicus [26] of 50%. Moreover, the IC50 in data set [1] stood at 95.9 µM; in data set [2] it was 10.4 µM; in [22], 5 µM. The median effective dose (ED50) was determined as 8.7 mg/kg in the data set on Cavia porcellus, 8.7 mg/kg in the data set with Rattus norvegicus [8] and 9 mg/kg in the data set on Rattus norvegicus [16]. In addition, the figures for the “inhibition (INH)” value with Rattus norvegicus [10] and in the data set with Rattus norvegicus [18] were “<=98%” and 99%, respectively. Further, the LD50 in [15] was determined as 486 mg/kg.

In the case of `CCCCCCCCCCCCCCC1(C(=O)OC)CO1` (racemic) [METHYL PALMOXIRATE], the IC50 in data set [27] was 0.046 µM. In addition, in data set [28], the EC50 was 1 µM. Further, the Activity in the data set on Canis familiaris [29] worked out at 6.5 mM; in the data set with Canis familiaris [30], 6.5 mM; in the data set with Canis familiaris [31], 8%; in the data set with Rattus norvegicus [32], 70%; in the data set with Rattus norvegicus [33], 50%; with Mus musculus [34] it was 78%. Further, the Activity in the data set with Mus musculus [35] was found to be 40%.
